From patent US20110305637A1, “RADIOLABELLED PDE10 LIGANDS” (Janssen Pharmaceutica N.V., priority 2009, published 2011) come the findings set out here.

This data set in a line: Plasma metabolite analysis. Type of data set: in vivo. The note with it: rat plasma, 60 min p.i. On the procedure: The metabolic stability of [^18F]B-1 was studied in normal rats by determination of the relative amounts of parent tracer and metabolites in the blood at 1 hour p.i. of the tracer. After intravenous (i.v.) administration of about 19 MBq [^18F]B-1 via tail vein under anesthesia (2.5% Isoflurane in O2 at 1 L/min flow rate), rats were sacrificed by decapitation at 60 min p.i. (n=2). Blood was collected in heparin containing tubes (4.5 mL LH PST tubes; BD vacutainer, BD, Franklin Lakes, N.J., USA) and immediately centrifuged for 10 min at 3000 rpm to separate the plasma. […] After passing through UV detector (254 nm), the HPLC eluate was collected as 1-mL fractions using an automatic fraction collector and the radioactivity of these fractions was measured in the γ-counter.
The metabolic stability was assessed in plasma collected from normal rats (n=2) 60 min post injection of [^18F]B-1 using RP-HPLC. […]
The metabolic stability of [^18F]B-2 was studied in normal rats by determination of the relative amounts of parent tracer and metabolites in the blood at 1 hour p.i. of the tracer. […] After passing through UV detector (254 nm), the HPLC eluate was collected as 1-mL fractions using an automatic fraction collector and the radioactivity of these fractions was measured in the γ-counter. […]

With `[18F]CCCn1cc(-c2ccncc2)c(-c2ccc(OCc3ccc4ccccc4n3)cc2)n1` [[^18F]B-1], the “Relative percentage of apolar metabolite(s)/components” value was 1.6 ± 1.5%.
